# Measured values: ChEMBL document CHEMBL3045723, “Synthesis of novel 3-(5-sulfanyl-1,3,4-oxadiazol-2-yl)-2H-chromen-2-one condensed s-triazinyl piperazines and piperidines as antimicrobial agents” (2012)
# Key:
# [1] = tested on: Candida albicans; assay: Antifungal activity against Candida albicans MTCC 183 after 48 hr; format: functional; settings: MTCC 183, 48 h
# [2] = tested on: Aspergillus niger; assay: Antifungal activity against Aspergillus niger MTCC 282 after 48 hr; format: functional; settings: MTCC 282, 48 h
# [3] = tested on: Candida albicans; assay: Antifungal activity against Candida albicans MTCC 183 after 24 hr by agar disk diffusion test; format: functional
# [4] = tested on: Aspergillus niger; assay: Antifungal activity against Aspergillus niger MTCC 282 after 24 hr by agar disk diffusion test; format: functional
# [5] = tested on: Shigella flexneri; assay: Antibacterial activity against Shigella flexneri after 24 hr; format: functional
# [6] = tested on: Proteus vulgaris; assay: Antibacterial activity against Proteus vulgaris MTCC 1771 after 24 hr; format: functional; settings: MTCC 1771, 24 h
# [7] = tested on: Salmonella typhi; assay: Antibacterial activity against Salmonella enterica subsp. enterica serovar Typhi MTCC 733 after 24 hr; format: functional; settings: MTCC 733, 24 h
# [8] = tested on: Shigella flexneri; assay: Antibacterial activity against Shigella flexneri after 24 hr by agar disk diffusion test; format: functional
# [9] = tested on: Proteus vulgaris; assay: Antibacterial activity against Proteus vulgaris MTCC 1771 after 24 hr by agar disk diffusion test; format: functional
# [10] = tested on: Salmonella typhi; assay: Antibacterial activity against Salmonella enterica subsp. enterica serovar Typhi MTCC 733 after 24 hr by agar disk diffusion test; format: functional
# [11] = tested on: Klebsiella pneumoniae; assay: Antibacterial activity against Klebsiella pneumoniae MTCC 109 after 24 hr by agar disk diffusion test; format: functional
# [12] = tested on: Pseudomonas aeruginosa; assay: Antibacterial activity against Pseudomonas aeruginosa MTCC 741 after 24 hr by agar disk diffusion test; format: functional
# [13] = tested on: Escherichia coli; assay: Antibacterial activity against Escherichia coli MTCC 739 after 24 hr by agar disk diffusion test; format: functional
# [14] = tested on: Bacillus cereus; assay: Antibacterial activity against Bacillus cereus MTCC 619 after 24 hr by agar disk diffusion test; format: functional
# [15] = tested on: Staphylococcus aureus; assay: Antibacterial activity against Staphylococcus aureus MTCC 96 after 24 hr by agar disk diffusion test; format: functional
# [16] = tested on: Klebsiella pneumoniae; assay: Antibacterial activity against Klebsiella pneumoniae MTCC 109 after 24 hr; format: functional; settings: MTCC 109, 24 h
# [17] = tested on: Pseudomonas aeruginosa; assay: Antibacterial activity against Pseudomonas aeruginosa MTCC 741; format: functional
# [18] = tested on: Escherichia coli; assay: Antibacterial activity against Escherichia coli MTCC 739 after 24 hr; format: functional; settings: MTCC 739, 24 h
# [19] = tested on: Bacillus cereus; assay: Antibacterial activity against Bacillus cereus MTCC 619 after 24 hr; format: functional; settings: MTCC 619, 24 h
# [20] = tested on: Staphylococcus aureus; assay: Antibacterial activity against Staphylococcus aureus MTCC 96 after 24 hr; format: functional; settings: MTCC 96, 24 h
# [21] = tested on: Bacillus cereus; assay: Antibacterial activity against Bacillus cereus MTCC 619 at 100 ug/disk after 24 hr by agar disk diffusion test; format: functional; settings: MTCC 619, 24 h, read-out: IZ
# [22] = tested on: Staphylococcus aureus; assay: Antibacterial activity against Staphylococcus aureus MTCC 96 at 100 ug/disc after 24 hr by agar disk diffusion test; settings: MTCC 96, 24 h, read-out: IZ
# [23] = tested on: Shigella flexneri; assay: Antibacterial activity against Shigella flexneri at 100 ug/disc after 24 hr by agar disk diffusion test; format: functional; settings: read-out: IZ
# [24] = tested on: Proteus vulgaris; assay: Antibacterial activity against Proteus vulgaris MTCC 1771 at 100 ug/disk after 24 hr by agar disk diffusion test; format: functional; settings: MTCC 1771, 24 h, read-out: IZ
# [25] = tested on: Salmonella typhi; assay: Antibacterial activity against Salmonella enterica subsp. enterica serovar Typhi MTCC 733 at 100 ug/disk after 24 hr by agar disk diffusion test; format: functional; settings: MTCC 733, 24 h, read-out: IZ
# [26] = tested on: Pseudomonas aeruginosa; assay: microbe, parasite or virus in culture; settings: MTCC 741, 24 h, read-out: IZ
# Description: Antibacterial activity against Pseudomonas aeruginosa MTCC 741 at 100 ug/disk after 24 hr by agar disk diffusion test
# [27] = tested on: Escherichia coli; assay: microbe, parasite or virus in culture; settings: MTCC 739, 24 h, read-out: IZ
# Description: Antibacterial activity against Escherichia coli MTCC 739 at 100 ug/disk after 24 hr by agar disk diffusion test
# [28] = tested on: Klebsiella pneumoniae; assay: microbe, parasite or virus in culture; settings: MTCC 109, 24 h, read-out: IZ
# Description: Antibacterial activity against Klebsiella pneumoniae MTCC 109 at 100 ug/disk after 24 hr by agar disk diffusion test
# [29] = tested on: Candida albicans; assay: Antifungal activity against Candida albicans MTCC 183 at 100 ug/disk after 24 hr by agar disk diffusion test; format: functional; settings: MTCC 183, 24 h, read-out: IZ
# [30] = tested on: Aspergillus niger; assay: Antifungal activity against Aspergillus niger MTCC 282 at 100 ug/disk after 24 hr by agar disk diffusion test; format: functional; settings: MTCC 282, 24 h, read-out: IZ
compound,measurement,setting,value
CN1CCN(c2nc(Oc3cccc4cccnc34)nc(Sc3nnc(-c4cc5ccccc5oc4=O)o3)n2)CC1,MIC,[1],100 µg/mL
same,MIC,[2],100 µg/mL
same,inhibition zone (IZ),[3],11 mm
same,inhibition zone (IZ),[4],<10 mm
same,MIC,[5],100 µg/mL
same,MIC,[6],100 µg/mL
same,MIC,[7],100 µg/mL
same,inhibition zone (IZ),[8],18 mm
same,inhibition zone (IZ),[9],11 mm
same,inhibition zone (IZ),[10],16 mm
same,inhibition zone (IZ),[11],12 mm
same,inhibition zone (IZ),[12],19 mm
same,inhibition zone (IZ),[13],12 mm
same,inhibition zone (IZ),[14],<10 mm
same,inhibition zone (IZ),[15],13 mm
same,MIC,[16],100 µg/mL
same,MIC,[17],100 µg/mL
same,MIC,[18],100 µg/mL
same,MIC,[19],100 µg/mL
same,MIC,[20],100 µg/mL
O=C(O)c1cn(C2CC2)c2cc(N3CCNCC3)c(F)cc2c1=O [CIPROFLOXACIN],MIC,[5],1.56 µg/mL
same,MIC,[6],0.39 µg/mL
same,MIC,[7],0.39 µg/mL
same,zone of inhibition at 100 µg/disc,[21],31 mm
same,zone of inhibition at 100 µg/disc,[22],30 mm
same,MIC,[16],0.78 µg/mL
same,MIC,[17],0.78 µg/mL
same,MIC,[19],0.39 µg/mL
same,MIC,[20],1.56 µg/mL
same,zone of inhibition at 100 µg/disc,[23],32 mm
same,zone of inhibition at 100 µg/disc,[24],31 mm
same,zone of inhibition at 100 µg/disc,[25],30 mm
same,zone of inhibition at 100 µg/disc,[26],33 mm
same,zone of inhibition at 100 µg/disc,[27],32 mm
same,zone of inhibition at 100 µg/disc,[28],33 mm
CC(=O)N1CCN(c2ccc(OCC3COC(Cn4ccnc4)(c4ccc(Cl)cc4Cl)O3)cc2)CC1 (centres undefined) [KETOCONAZOLE],MIC,[1],1.56 µg/mL
same,MIC,[2],1.56 µg/mL
same,zone of inhibition at 100 µg/disc,[29],33 mm
same,zone of inhibition at 100 µg/disc,[30],30 mm
